# According to ChEMBL document CHEMBL1135900, “Toward selective ERbeta agonists for central nervous system disorders: synthesis and characterization of aryl benzthiophenes” (J Med Chem, 2002):
# Tests used:
# [1] = molecular target: T1, Estrogen receptor beta (Homo sapiens, UniProt Q92731); assay: Agonist activity in transcriptional activation assay in SH-SY5Y neuroblastoma cells expressing Estrogen receptor beta; assay type: functional, cell-based
# [2] = molecular target: T2, Estrogen receptor (Homo sapiens, UniProt P03372)
# T2 sequence (P03372 whole entry): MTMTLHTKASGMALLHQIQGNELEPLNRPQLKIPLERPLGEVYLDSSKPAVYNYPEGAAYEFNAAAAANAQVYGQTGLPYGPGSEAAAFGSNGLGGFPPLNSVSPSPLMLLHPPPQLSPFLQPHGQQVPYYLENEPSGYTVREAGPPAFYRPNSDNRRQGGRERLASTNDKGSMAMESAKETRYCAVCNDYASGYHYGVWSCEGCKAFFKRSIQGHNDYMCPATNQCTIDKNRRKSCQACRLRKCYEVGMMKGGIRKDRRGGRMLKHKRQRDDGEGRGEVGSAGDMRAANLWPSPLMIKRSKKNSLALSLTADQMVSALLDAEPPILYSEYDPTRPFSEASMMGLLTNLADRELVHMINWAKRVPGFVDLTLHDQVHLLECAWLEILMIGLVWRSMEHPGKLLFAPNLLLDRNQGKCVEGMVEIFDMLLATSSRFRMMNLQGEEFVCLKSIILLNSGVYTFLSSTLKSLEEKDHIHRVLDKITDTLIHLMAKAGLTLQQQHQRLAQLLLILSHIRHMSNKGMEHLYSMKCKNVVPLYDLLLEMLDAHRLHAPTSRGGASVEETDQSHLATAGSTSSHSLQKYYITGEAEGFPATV
# Description: Activation of estrogen response element in HeLa cells stably transfected with human Estrogen receptor alpha.
# [3] = molecular target: T1, Estrogen receptor beta
# Description: Inhibition of [3H]17-beta-estradiol binding to human recombinant Estrogen receptor beta.
# [4] = molecular target: T2, Estrogen receptor; remark: listed apart in the source
# Description: Inhibition of [3H]17-beta-estradiol binding to human recombinant Estrogen receptor alpha.
# [5] = molecular target: T1, Estrogen receptor beta; remark: listed apart in the source
# Description: Activation of estrogen response element in HeLa cells stably transfected with human Estrogen receptor beta.
# T1 sequence (Q92731 whole entry): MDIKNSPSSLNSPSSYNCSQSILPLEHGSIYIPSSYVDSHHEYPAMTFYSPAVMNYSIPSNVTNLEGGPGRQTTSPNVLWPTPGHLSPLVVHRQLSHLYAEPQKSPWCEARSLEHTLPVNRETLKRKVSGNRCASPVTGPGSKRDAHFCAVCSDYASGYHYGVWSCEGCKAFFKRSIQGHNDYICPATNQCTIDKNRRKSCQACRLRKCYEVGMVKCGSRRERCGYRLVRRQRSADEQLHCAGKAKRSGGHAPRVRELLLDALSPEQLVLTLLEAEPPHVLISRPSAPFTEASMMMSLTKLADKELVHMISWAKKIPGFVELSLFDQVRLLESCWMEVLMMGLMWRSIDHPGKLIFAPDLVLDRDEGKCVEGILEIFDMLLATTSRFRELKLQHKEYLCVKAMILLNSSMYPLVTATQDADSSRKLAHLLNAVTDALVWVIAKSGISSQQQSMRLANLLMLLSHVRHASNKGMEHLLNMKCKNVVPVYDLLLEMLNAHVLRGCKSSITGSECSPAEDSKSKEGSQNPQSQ
Structure (SMILES),EC50 [1] [nM],EC50 [2] [nM],EC50 [3] [nM],EC50 [4] [nM],EC50 [5] [nM]
Oc1ccc2cc(-c3ccc(O)c(F)c3)sc2c1,13,138,115,1030,32
CCc1cc(-c2cc3ccc(O)cc3s2)ccc1O,,191,4710,7440,257
Oc1cccc(-c2cc3ccc(O)cc3s2)c1,,269,740,2210,245
Cc1cc(-c2cc3ccc(O)cc3s2)ccc1O,,148,1830,3650,302
Cc1ccc(-c2cc3ccc(O)cc3s2)cc1,120,178,> 10000,> 10000,174
Cc1cc(-c2cc3c(O)cc(O)cc3s2)ccc1O,,> 1000,> 10000,> 10000,> 1000
Oc1ccc(-c2cc3ccc(O)cc3s2)cc1 [RALOXIFENE CORE],10,,114,,17
Oc1cc(O)c2cc(-c3ccc(O)c(F)c3)sc2c1,,1000,7470,> 10000,> 1000
CCCc1cc(-c2cc3ccc(O)cc3s2)ccc1O,257,162,3940,> 10000,186
Oc1ccc2cc(-c3ccc(O)c(O)c3)sc2c1,,363,249,4980,525
Cc1cc(O)ccc1-c1cc2ccc(O)cc2s1,16,48,129,341,15
CC(=O)c1cc(-c2cc3ccc(O)cc3s2)ccc1O,,> 1000,> 10000,> 10000,> 1000
Oc1ccc2cc(-c3ccccc3)sc2c1,69,209,4310,3710,166
